Data: patent publication US8192962B2, “Processes for detecting toxic substances” (Daikin Industries, Ltd., priority 2001, dated 2012)

Test system: Transport facilitation protein genes
Assay: DNA chip mRNA expression in yeast, transport facilitation protein genes (Table 5)
Type: cell-based, Saccharomyces cerevisiae S288C
How it was run: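 Untreated cultures served as reference for log-phase S288C yeast given a growth-inhibiting, non-lethal toxicant dose for 2 h at 25° C. in YPD. Gene expression was measured on a whole-genome DNA chip from Cy3/Cy5-labeled cDNA.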

S=C([S-])NCCNC(=S)[S-].[Zn+2] [(11), zinc N,N′-ethylenebis(dithiocarbamate)]
The level of expressed mRNA in the presence of chemical substance/The level of expressed mRNA in the absence of chemical substance (yeast gene YBL030C): 1.1
The level of expressed mRNA in the presence of chemical substance/The level of expressed mRNA in the absence of chemical substance (yeast gene YBL099W): 2.1
The level of expressed mRNA in the presence of chemical substance/The level of expressed mRNA in the absence of chemical substance (yeast gene YBR052C): 1.7
The level of expressed mRNA in the presence of chemical substance/The level of expressed mRNA in the absence of chemical substance (yeast gene YBR068C): 0.8
The level of expressed mRNA in the presence of chemical substance/The level of expressed mRNA in the absence of chemical substance (yeast gene YBR127C): 1.1
The level of expressed mRNA in the presence of chemical substance/The level of expressed mRNA in the absence of chemical substance (yeast gene YBR132C): 1.9
The level of expressed mRNA in the presence of chemical substance/The level of expressed mRNA in the absence of chemical substance (yeast gene YBR207W): 1.1
The level of expressed mRNA in the presence of chemical substance/The level of expressed mRNA in the absence of chemical substance (yeast gene YBR293W): 1.1
The level of expressed mRNA in the presence of chemical substance/The level of expressed mRNA in the absence of chemical substance (yeast gene YBR294W): 1.2
The level of expressed mRNA in the presence of chemical substance/The level of expressed mRNA in the absence of chemical substance (yeast gene YBR295W): 1.1
The level of expressed mRNA in the presence of chemical substance/The level of expressed mRNA in the absence of chemical substance (yeast gene YBR298C): 1.5
The level of expressed mRNA in the presence of chemical substance/The level of expressed mRNA in the absence of chemical substance (yeast gene YCL025C): 1.0
The level of expressed mRNA in the presence of chemical substance/The level of expressed mRNA in the absence of chemical substance (yeast gene YCL038C): 2.0
The level of expressed mRNA in the presence of chemical substance/The level of expressed mRNA in the absence of chemical substance (yeast gene YCR024C-A): 1.5
The level of expressed mRNA in the presence of chemical substance/The level of expressed mRNA in the absence of chemical substance (yeast gene YCR037C): 0.8
The level of expressed mRNA in the presence of chemical substance/The level of expressed mRNA in the absence of chemical substance (yeast gene YCR098C): 1.3
The level of expressed mRNA in the presence of chemical substance/The level of expressed mRNA in the absence of chemical substance (yeast gene YDL128W): 1.2
The level of expressed mRNA in the presence of chemical substance/The level of expressed mRNA in the absence of chemical substance (yeast gene YDL198C): 2.5
The level of expressed mRNA in the presence of chemical substance/The level of expressed mRNA in the absence of chemical substance (yeast gene YDL210W): 0.6
The level of expressed mRNA in the presence of chemical substance/The level of expressed mRNA in the absence of chemical substance (yeast gene YDL245C): 1.5
The level of expressed mRNA in the presence of chemical substance/The level of expressed mRNA in the absence of chemical substance (yeast gene YDR038C): 0.9
The level of expressed mRNA in the presence of chemical substance/The level of expressed mRNA in the absence of chemical substance (yeast gene YDR039C): 0.9
The level of expressed mRNA in the presence of chemical substance/The level of expressed mRNA in the absence of chemical substance (yeast gene YDR086C): 1.1
The level of expressed mRNA in the presence of chemical substance/The level of expressed mRNA in the absence of chemical substance (yeast gene YDR270W): 1.0
The level of expressed mRNA in the presence of chemical substance/The level of expressed mRNA in the absence of chemical substance (yeast gene YDR298C): 1.2
The level of expressed mRNA in the presence of chemical substance/The level of expressed mRNA in the absence of chemical substance (yeast gene YDR342C): 2.9
The level of expressed mRNA in the presence of chemical substance/The level of expressed mRNA in the absence of chemical substance (yeast gene YDR343C): 2.3
The level of expressed mRNA in the presence of chemical substance/The level of expressed mRNA in the absence of chemical substance (yeast gene YDR345C): 1.5
The level of expressed mRNA in the presence of chemical substance/The level of expressed mRNA in the absence of chemical substance (yeast gene YDR387C): 2.0
The level of expressed mRNA in the presence of chemical substance/The level of expressed mRNA in the absence of chemical substance (yeast gene YDR497C): 0.7
The level of expressed mRNA in the presence of chemical substance/The level of expressed mRNA in the absence of chemical substance (yeast gene YEL027W): 0.9
The level of expressed mRNA in the presence of chemical substance/The level of expressed mRNA in the absence of chemical substance (yeast gene YEL063C): 0.8
The level of expressed mRNA in the presence of chemical substance/The level of expressed mRNA in the absence of chemical substance (yeast gene YEL065W): 0.6
The level of expressed mRNA in the presence of chemical substance/The level of expressed mRNA in the absence of chemical substance (yeast gene YER053C): 2.4
The level of expressed mRNA in the presence of chemical substance/The level of expressed mRNA in the absence of chemical substance (yeast gene YER119C): 2.2
The level of expressed mRNA in the presence of chemical substance/The level of expressed mRNA in the absence of chemical substance (yeast gene YFL011W): 2.1
The level of expressed mRNA in the presence of chemical substance/The level of expressed mRNA in the absence of chemical substance (yeast gene YFL041W): 0.9
The level of expressed mRNA in the presence of chemical substance/The level of expressed mRNA in the absence of chemical substance (yeast gene YFL050C): 1.2
The level of expressed mRNA in the presence of chemical substance/The level of expressed mRNA in the absence of chemical substance (yeast gene YFL054C): 1.7
The level of expressed mRNA in the presence of chemical substance/The level of expressed mRNA in the absence of chemical substance (yeast gene YFL055W): 2.7
The level of expressed mRNA in the presence of chemical substance/The level of expressed mRNA in the absence of chemical substance (yeast gene YGL006W): 0.8
The level of expressed mRNA in the presence of chemical substance/The level of expressed mRNA in the absence of chemical substance (yeast gene YGL008C): 0.7
The level of expressed mRNA in the presence of chemical substance/The level of expressed mRNA in the absence of chemical substance (yeast gene YGL104C): 1.8
The level of expressed mRNA in the presence of chemical substance/The level of expressed mRNA in the absence of chemical substance (yeast gene YGL167C): 0.8
The level of expressed mRNA in the presence of chemical substance/The level of expressed mRNA in the absence of chemical substance (yeast gene YGL255W): 0.5
The level of expressed mRNA in the presence of chemical substance/The level of expressed mRNA in the absence of chemical substance (yeast gene YGR055W): 1.5
The level of expressed mRNA in the presence of chemical substance/The level of expressed mRNA in the absence of chemical substance (yeast gene YGR065C): 1.1
The level of expressed mRNA in the presence of chemical substance/The level of expressed mRNA in the absence of chemical substance (yeast gene YGR082W): 1.3
The level of expressed mRNA in the presence of chemical substance/The level of expressed mRNA in the absence of chemical substance (yeast gene YGR096W): 0.8
The level of expressed mRNA in the presence of chemical substance/The level of expressed mRNA in the absence of chemical substance (yeast gene YGR138C): 0.7
The level of expressed mRNA in the presence of chemical substance/The level of expressed mRNA in the absence of chemical substance (yeast gene YGR191W): 1.6
The level of expressed mRNA in the presence of chemical substance/The level of expressed mRNA in the absence of chemical substance (yeast gene YGR197C): 1.1
The level of expressed mRNA in the presence of chemical substance/The level of expressed mRNA in the absence of chemical substance (yeast gene YGR224W): 0.8
The level of expressed mRNA in the presence of chemical substance/The level of expressed mRNA in the absence of chemical substance (yeast gene YGR260W): 1.3
The level of expressed mRNA in the presence of chemical substance/The level of expressed mRNA in the absence of chemical substance (yeast gene YGR281W): 0.7
